Data: patent US6383814B1, “Cationic amphiphiles for intracellular delivery of therapeutic molecules” (Genzyme Corporation, priority 1994, dated 2002)

Experiments:
[1] = test system: lung and heart; assay: Intravenous delivery of pCF-1CAT complex, CAT expression in organs; format: in vivo, BALB/c mouse; details: for organ distribution of CAT expression: DNA 0.9 mM, i.v. tail vein, 48 h
Method: The reporter plasmid pCF-1CAT (Example 4) was used and was purified to minimize endotoxin (<1 EU/mg pDNA), and also chromosomal DNA contamination (<2%). Amphiphile No. 53 (1:1 with DOPE)/DNA complex was prepared according to the procedures of Example 3. The amphiphile was provided as the free base, the plasmid was prepared as a sodium salt in water, and the DOPE was provided in zwitterionic form.
The animal model was the BALB/c mouse. Females 6-8 weeks old weighing 16-18 g were injected intravenously using the tail vein, using 5 animals per group. The volume of lipid:pDNA complex used was 100 μl in all experiments. Unless noted otherwise, mice were sacrificed 48 h following administration of the complex. Organs were frozen immediately on dry ice to store for subsequent analysis.
Expression of chloramphenicol acetyl transferase (CAT) was quantitated using a radiochemical assay for CAT enzymatic activity. Organs Were weighed and homogenized on ice in a lysis buffer containing protease inhibitors. The lysate was freeze-thawed 3×, centrifuged, and heated to 65° C. to inactivate deacetylases before adding it to a reaction mixture containing ^14C-chloraamphenicol. After an incubation at 37° C., the mixture was extracted with ethyl acetate, concentrated, spotted onto TLC plates and eluted with CHCl3/MeOH. Spots corresponding to the acylated reaction products were quantitated (Betagen) and converted to ng CAT activity using authentic CAT standards.

[2] = test system: Immortalized human cystic fibrosis airway cells (CFT-1); assay: SPQ assay of cAMP-stimulated Cl− channel activity after pCMV-CFTR transfection; format: cell-based
Method: Immortalized human cystic fibrosis airway cells (CFT-1, as above) were used.
In preparation for the assay, the cells were grown on glass coverslips until approximately 60% confluent The cells were hen transfected with a complex of spermidine cholesterol carbamate:DOPE (1:1) and a plasmid(pCMV-CFTR) containing a cDNA that encodes wild type human CFTR pCMV-CFTR plasmid is a construct containing the encoding sequence for CFTR and the following regulatory elements, a CMV promoter and enhancer, and an SV40 polyadenylation signal. Additional constructs suitable for the practice of this example include pMT-CFTR, Cheng et al., Cell, 63,827-834 (1990). The complex used was 10.5 μmolar of spermidine cholesterol carbamate (also of DOPE) and 30 μmolar of pCMV-CFTR based on nucleotide.
48 hours after amphiphile-mediated transfection, cells were tested for cAMP-stimulated Cl^− channel activity using the 6-methoxy-N-(3-sulfopropyl)quinolinium (“SPQ”) assay. […] In the assay, cAMP-dependent Cl^− channel activity was assessed using “SPQ” (from Molecular Probes, Eugene, Oreg.), a halide-sensitive fluorophore. Increases in halide permeability results in a more rapid increase in SPQ fluorescence, and the rate of change (rather than the absolute change in fluorescence) is the important variable in assessing Cl^− permeability. […]

[3] = test system: lungs of mice; assay: CAT assay, parts B and C: intra-nasal, pCF1/CAT or pCF2/CAT vectors; details: mouse
Description: That the novel amphiphiles of the invention are an important contribution to the art is immediately seen by comparing their performance—as in vivo transfection enhancers—to that of closely related cationic amphiphiles that lack the novel T-shape. It has been determined that spermidine cholesterol carbamate provides a much greater level of enhancement than N^1-spermidine cholesteryl carbamate which contains the same number of carbon and nitrogen atoms in its cationic alkylamine component but which is linear and not “T-shaped”. Following generally the procedures of Example 3, part B, and using respectively 6 mM (as nucleotide), 1.5 mM, and 1.5 mM concentrations of DNA, amphiphile and of co-lipid, the transfection enhancement provided by spermidine cholesterol carbamate (amphiphile No.53), in relation to N^1-spermidine cholesteryl carbamate, was determined to be about 30 fold.
Also following the procedures of Example 3, part B, and using respectively 4 mM (as nucleotide), 1 mM, and 2 mM concentrations of DNA, amphiphile and co-lipid, the transfection enhancement provided by spermine cholesterol carbamate (amphiphile No. 67)—in relation to N^1-thermospermine cholesteryl carbamate and N^1-spermine cholesteryl carbamate to which spermine cholesterol carbamate is similarly related—is at least about 30 fold.

[4] = test system: CFT-1 cell line (human cystic fibrosis bronchial epithelial cells); assay: Cell transfection assay (β-galactosidase expression); format: cell-based; details: 1:1 mixture with DOPE, pCMVβ
Method: Following combination of the solutions, a thin film was produced by removing chloroform from the mixture by evaporation under reduced pressure (20 mm Hg). The film was further dried under vacuum (1 mm Hg) for 24 hours.
The resulting suspension was then diluted with 4 ml of water to yield a solution that is 670 μM in cationic amphiphile and 670 μM in neutral colipid.
For preparation of the transfecting solution, DNA encoding for β-galactosidase (pCMVβ, ClonTech., Palo Alto, Calif.) was dissolved in OptiMEM culture medium (Gibco/BRL No. 31885-013).
The resulting 335 μM solutions were then serially diluted 7 times to generate 8 separate amphiphile-containing solutions having concentrations ranging from 335 μM to 2.63 μM, with each resultant solution having a volume of 165 μl. Thus, 64 solutions were prepared in all, there being 8 wells each of 8 different concentrations of amphiphile/DOPE.
Independently, DNA solutions (165μl, 960 μM) were pipetted into 8 wells containing OptiMEM (165 μl), and the resulting 480 μM solutions were then serially diluted 7 times to generate 8 separate 165 μl solutions from each well, with the concentrations of DNA in the wells ranging from 480 μM to 3.75 μM. […]

[5] = Excipient selection against amphiphile/DNA aggregate formation; format: physicochemical; details: particularly as DNA concentration is increased
Description: Additionally, the therapeutic compositions of the invention can in general be formulated with excipients (such as the carbohydrates lactose, trehalose, sucrose, mannitol, maltose or galactose) and may also be lyophilized (and then rehydrated) in the presence of such excipients prior to use. Conditions of optimized formulation for each amphiphile of the invention are capable of determination by those skilled in the pharmaceutical art. […] Addition of such excipients maintains the consistency of lyophilized pharmaceutical compositions during storage, and prevent difficulties such as aggregation, or insolubity, that may likely occur upon rehydration from the lyophilized state.

[6] = test system: Primary nasal polyp cells from a cystic fibrosis patient (Δ F508); assay: cAMP-stimulated transepithelial chloride secretion in modified Ussing chamber after pCMV-CFTR transfection; format: cell-based, human; details: 1:1 with DOPE; 42 μmolar amphiphile, 60 μmolar pCMV-CFTR; forskolin and IBMX
Method: Primary (non-immortalized) nasal polyp cells from an adult cystic fibrosis patient (homozygous for the Δ F508mutation) were grown on collagen-coated permeable filter supports (Millicells) to form a polarized and confluent epithelial monolayer. Once the monolayer was electrically tight (about 5 to 7 days post seeding, and as indicated by the development of resistance across the cell sheet), the apical surface can be exposed to formulations of cationic amphiphile: DNA complex.
In this case, the amphiphile (spermidine cholesterol carbamate) was provided as a 1:1 (by mole) mixture with DOPE, and this mixture was then complexed with pCMV-CFTR plasmid vector (a construct encoding wild type human cystic fibrosis transmembrane conductance regulator protein, see above). Concentrations in the final mixture were 42 μmolar of spermidine cholesterol carbamate (and also of DOPE) and 60 μmolar (based on morality in nucleotides) of the plasmid expression vector.
Expression of CFTR was determined by measuring cAMP-stimulated transepithelial chloride secretion in a modified Ussing chamber, Zabner et al., Nature Genetics, 6, 75-83 […]. The mucosal side of the epithelium was bathed in Ringer's bicarbonate solution bubbled with 95% O2 and 5% CO2. […] Transepithelial voltage was clamped to 0 m V and short circuit current was recorded. […]

[7] = test system: lungs of balb/c mice
Method: This assay was used to assess the ability of the cationic amphiphiles of the invention to transfect cells in vivo from live specimens. In the assay, the lungs of balb/c mice were instilled intra-nasally (the procedure can also be performed trans-tracheally) with 100 μl of cationic amphiphile:DNA complex, which was allowed to form during a 15-minute period prior to administration according to the following procedure. The amphiphile (premixed with co-lipid, see below) was hydrated in water for 10 minutes, a period sufficient to yield a suspension at twice the final concentration required. This was vortexed for two minutes and aliquoted to provide 55 microliter quantities for each mouse to be instilled. Similarly, DNA encoding the reporter (CAT) gene was diluted with water to a concentration twice the required final concentration, and then aliquoted at 55 microliters for each mouse to be instilled. The lipid was gently combined with the DNA (in a polystyrene tube), and the complex allowed to form for 15 minutes before the mice were instilled therewith.
The plasmid used (pCMVHI-CAT, see Example 4) provides an encoding DNA for chloramphenicol transferase enzyme. Specifics on the amphiphile:DNA complexes are provided below.
Two days following transfection, mice were sacrificed, and the lungs and trachea removed, weighed, and homogenized in a buffer solution (250 mM Tris, pH 7.8, 5 mM EDTA). The homogenate was darifed by centrifugation, and the deacetylases therein were inactivated by heat treatment at 70° C. for 10 minutes. Lysate was incubated overnight with acetyl coenzyme A and C^14-chloramphenicol. CAT enzyme activity was then visualized by thin layer chromatography (“TLC”) following an ethyl acetate extraction.
The presence of the enzyme CAT will cause an acetyl group to be transferred from acetyl coenzyme A to C^14-chloramphenicol. The acetylated/radiolabeled chloramphenicol migrates faster on a TLC plate and thus its presence can be detected.
With respect to the comparison provided by FIG. 10, the following conditions are of note. The transfection solution for spermidine cholesterol carbamate contained 6 mM DNA measured as concentration of nucleotide, and 1.5 mM of cationic amphiphile. […] For transfection with DC-chol, the molar ratio of DC-chol to DOPE was 3:2, and the concentrations of cationic amphiphile and of DNA (as nucleotide) were 1.3 mM and 0.9 mM, respectively. For transfection with DMRIE, the molar ratio of DMRIE to DOPE was 1:1 and the concentrations of cationic amphiphile and of DNA were 1.7 mM and 12 mM, respectively.

[8] = Transacylation reaction of amphiphile with co-lipid DOPE on co-storage; format: physicochemical
Description: Although heretofore unrecognized in the art, it has been determined also that certain co-lipids may react chemically with certain types of cationic amphiphiles under conditions of co-storage, there resulting new molecular species. Generation of such new species is believed to occur via mechanisms such as transacylation. In this regard, see FIG. 4 which depicts a transacylation reaction involving spermine cholesterol carbamate (No.67) and DOPE, there resulting lyso PE species and multiple forms of particular acyl-cationic amphiphile (designated No. 80).
It is expected that these phenomena would also apply to lyophilized amphiphile/DOPE preparations.
Accordingly, it is highly preferred to maintain such amphiphile/DOPE preparations at very cold temperatures, such as −70 degrees C.

[9] = Transgene expression by protonation state of the amphiphile in transfecting composition with DOPE; details: amphiphile as free base; with DOPE zwitterion; plasmid DNA sodium salt in water
Description: An additional aspect of the invention concerns the protonation state of the cationic amphiphiles of the invention prior to their contacting plasmid DNA in order to form a therapeutic composition. It is within the practice of the invention to utilize fully protonated, partially protonated, or free base forms of the amphiphiles in order to form such therapeutic compositions. With respect to amphiphile No. 67 (spermine cholesterol carbamate), it has been observed that when providing this amphiphile for a transfecting composition with DOPE (itself provided as a zwitterion), transgene expression was best for the free base, but decreased if the amphiphile was prepared as an acetate salt. […] Under the circumstances described, the plasmid DNA provided for contacting with the amphiphile was prepared (without buffer) as a sodium salt in water.

[10] = 1.0-1.5 mM amphiphile, cholesterol 1:1, DNA 4.0-6.0 mM, intra-nasal

## CC(C)CCCC(C)C1CCC2C3CC=C4CC(OC(=O)N(CCCN)CCCCN)CCC4(C)C3CCC12C (stereo not drawn) [amphiphile No. 53, N^4-spermidine cholesteryl carbamate]
[1]; amphiphile/DNA molar ratio less than about 0.5
  organ distribution of CAT expression: strongly weighted toward the lung
[1]; amphiphile/DNA ratio of 1.25
  organ distribution of CAT expression: substantial expression was found in the heart
[1]; constant DNA concentration 0.9 mM, i.v.
  targeting to the lung over a range of amphiphile/DNA ratios: remained relatively constant
[2]
  transferring CFTR-encoding plasmid into immortalized CF airway cells: effective
[3]
  activity of amphiphile (in vivo transfection): highly active
  in vivo transfection in comparison with non T-shaped amphiphiles having equivalent cationic alkylamine structure: superior transfectants
[4]
  transfection efficiency improved by a factor, relative to DMRIE:DOPE (1:1): about 5
[5]
  excipient preferred to prevent formation of amphiphile/DNA aggregates: sucrose is preferred over mannitol
[6]
  cAMP-stimulated current: 0.5 to 2.5 μampere/cm^2
[7]; 1.5 mM amphiphile, 1:1 DOPE, 6 mM DNA (nucleotide), intra-nasal, 2 days
  enhancement of in vivo transfection (ng CAT activity per 100 mg tissue) in relation to DMRIE and DC-Chol: ≥ 20 fold
[7]; [10]
  transfection efficiency (ng CAT/100 mg tissue) with cholesterol as co-lipid, compared with DOPE as co-lipid: less effective
  transfection with cholesterol as co-lipid, compared with DC-Chol/DOPE: substantially more effective
[7]; about 0.75 mM amphiphile and 3.0 mM plasmid, versus the optimal 1.5 mM/6 mM
  toxicity to the target cells: less toxic

## CC(C)CCC[C@@H](C)[C@H]1CC[C@H]2[C@@H]3CC=C4C[C@@H](OC(=O)N(CCCCNCCCN)CCCNCCCN)CC[C@]4(C)[C@H]3CC[C@]12C [amphiphile No. 75, N^1,N^8-Bis(3-aminopropyl)-N^4-spermidine cholesteryl carbamate]
[3]
  activity of amphiphile (in vivo transfection): highly active

## 1,2-dimyristyloxypropyl-3-dimethyl-hydroxyethyl ammonium bromide [DMRIE, reference compound]
[7]; 1:1 molar with DOPE, 1.7 mM DMRIE, 1.7 mM DOPE, 1.2 mM plasmid DNA as nucleotide
  CAT activity in lung: 1 to 2 ng activity per 100 mg lung tissue

## CC(C)CCCC(C)C1CCC2C3CC=C4CC(OC(=O)N(CCCN)CCCCNCCCN)CCC4(C)C3CCC12C (stereo not drawn) [amphiphile No. 67, N^4-spermine cholesteryl carbamate]
[8]; amphiphile as mono, di, or tri acetate salt
  transacylation with DOPE: slow transacylations
[8]; aqueous solution where bilayer-containing structures such as liposomes can form
  transacylation with DOPE: will permit transacylation
[8]; mixture of amphiphile and DOPE in chloroform solvent
  transacylation with DOPE: does not appear to participate
[3]
  activity of amphiphile (in vivo transfection): highly active
  in vivo transfection in comparison with non T-shaped amphiphiles having equivalent cationic alkylamine structure: superior transfectants
[9]
  transgene expression: best
